In patent EP0102319B1, “Prophylactic and therapeutic use of muramyl peptides and their analogues against viral infections” (CIBA-GEIGY AG, priority 1982, dated 1984):

Assays:
Influenza A/Texas/1/77 = experiment: Lethal intranasal virus infection of mice, single dose of active substance, survival; assay type: in vivo, Mäuse
Protocol: (§1) Gruppen von 30, 40 oder 50 weiblichen MF-2f SPF-Mäusen mit einem Körpergewicht von 14-16 g bzw. 12-14 g bei den Versuchen mit Herpes simplex 1 Viren werden unter leichter Narkose mit einem Gemisch aus gleichen Teilen Aether, Äthanol und Chloroform mit letalen Dosen (ungefähr eine LD80-90; Anzahl der plaque forming units [PFU] siehe Tabelle 1) der untengenannten Viren-Stämme in Form von je 0,05 ml einer Suspension der Viren intranasal infiziert.
(§2) 10 oder 20 von diesen Mäusen werden zum unten angegebenen Zeitpunkt [Tage] bezogen auf den Tag der Infektion einmal (Einzeldosis) die in Tabelle 1 genannten Mengen der Wirksubstanz N-Acetyl- muramyl-L-alanyl-D-isoglutaminyl-L-alanin-2-(1.2-dipalmitoyl-sn-glycero-3-hydroxyphosphoryioxy)-äthylamid-natriumsalz (Verbindung I) in 0,05 bzw. 0,1 ml Phosphat-gepufferter-Salzlösung (PBS) bzw. in 0,2 ml einer 0,05 Gew.-%igen Lösung von Natriumcarboxymethylcellulose in doppelt destilliertem Wasser im Falle von intranasaler, intravenöser bzw. oraler Applikation auf die in Tabelle 1 genannte Art appliziert.
(§3) Die restlichen der obengenannten Mäuse, d. h. 20 oder 30, dienen zur Kontrolle, d. h. sie bleiben entweder unbehandelt oder erhalten ein Placebo.
(§4) Die intranasale Applikation von Verbindung I wird unter leichter Narkose mit einem Gemisch aus gleichen Teilen Diäthyläther, Aethanol und Chloroform durchgeführt.

[1] = tested on: Herpesvirus hominis 1/TUP; experiment: Lethal intranasal virus infection of mice, single dose of active substance, protection; assay type: in vivo, Mäuse; details: 10 mg/kg, day -7, intranasal infection (Figur 3)
Protocol: as §1, §2, §3, §4

[2] = intranasal, 1 mg/kg, single dose on day '-' (number not given) before infection
[3] = oral, 10 mg, single dose on day +7 after infection

SMILES | Mäuse die Infektion überleben (Influenza A/Texas/1/77; [2]) [%] | Mäuse die Infektion überleben (Influenza A/Texas/1/77; [3]) [%] | Schutzwirkung [1] | Schutzwirkung (Influenza A/Texas/1/77; [2]) | outcome of infection (death of mice) (Influenza A/Texas/1/77; [3])
CCCCCCCCCCCCCCCC(=O)OC[C@H](COP(=O)(O)OCCNC(=O)[C@H](C)NC(=O)CC[C@@H](NC(=O)[C@H](C)NC(=O)[C@@H](C)O[C@H]1[C@H](O)[C@@H](CO)OC(O)[C@@H]1NC(C)=O)C(N)=O)OC(=O)CCCCCCCCCCCCCCC (stereo partly drawn) [Verbindung I, N-Acetyl-muramyl-L-alanyl-D-isoglutaminyl-L-alanin-2-(1,2-dipalmitoyl-sn-glycero-3-hydroxyphosphoryloxy)-äthylamid] | 90 | 65 | – | – | –
CCCCOC(=O)[C@@H](CCC(N)=O)NC(=O)[C@H](C)NC(=O)[C@@H](C)O[C@H]1[C@H](O)[C@@H](CO)OC(O)[C@@H]1NC(C)=O (stereo partly drawn) [Verbindung II, N-Acetyl-muramyl-L-alanyl-D-glutamin-n-butylester] | – | – | Keinerlei Schutzwirkung | keinerlei Schutzwirkung | sämtliche Mäuse an der Infektion mit Influenza A/Texas/1/77 sterben
